According to patent US4150970A, “Growth regulator for plants” (Board of Trustees of Michigan State University, priority 1977, dated 1979):

Legend:
IR-8 rice seedlings [1] = assay: Growth analysis (NAR, RGR, LAR) of IR-8 rice seedlings (Example V); assay type: in vivo
Description: (§1) Rice seed cv. IR-8, or Starbonnet was surface treated with 0.1 percent mercuric chloride and planted in 77 cc plastic cups containing vermiculite and watered with one-fourth Hoagland's nutrient solution containing 3 mM of nitrogen at pH 5.0. After 10 days, seedlings were transplanted to 220 cc specimen cups wrapped in aluminum foil and containing 180 cc of the same Hoagland's nutrient solution. Four seedlings were suspended in the solution with a sponge rubber disc. The plants were grown under a 8 h night at 25° C. and a 16 h day at 30° C. with 21 and 8 μwatts per cm^2 in the blue and red spectra respectively. In the test with varying light intensity the high light intensity was 30 13 and the low intensity was 15 and 8 μwatts per cm^2 for the blue and red spectra respectively. The nutrient solution was renewed every 2 or 3 days. After one week the plants were sorted for size and similar sized plants assigned to the same block for the experiment. Prior to the initiation of a test the plants in each cup were assigned treatment numbers by use of a random number table. […] Sixteen hours prior to a test the foil wrapped cups were tared, and filled with one-half Hoaglands solution containing 6 mM nitrogen. Eighteen μl of chloroform or chloroform containing 1.8 μg triacontanol were placed on 2 cm^2 of Whatman No. 1 filter papers, air dried and placed in the specimen cups. This concentration of 10 μg triacontanol/liter was used for all tests described in the following Examples except where specifically indicated to the contrary. Immediately prior to the test the cups were all brought up to 180 ml. including a set of cups without plants to measure evaporation.
The plants were disected at harvest into shoots and roots. The expanded leaves were cut at the ligule and the newest leaf at the point it entered the sheath. The surface area of expanded leaves were measured using a Lambda Model LI-3000 planimeter. The plants were dried to constant weight in an oven at 100° C. and the roots, expanded leaves, and sheaths were weighed separately.
Growth analysis was conducted according to Evans (1972). The Net Assimulation Rate (NAR) is the increase in plant weight per unit of leaf area over time interval where: W=total weight per plant in mg, T=time in days, and L=leaf area in cm^2. [formula]
The relative growth rate (RGR) is the increase in plant weight per unit of original weight over a time interval and is obtained by: [formula]
The leaf area ratio is the ratio of leaf area to […] over a time interval. [formula]
IR-8 rice seedlings were grown as above explained and were tested at 8 hour, 24 hour, 72 hour, and 216 hour intervals. Control (no treatment) plants are indicated by "0" and triacontanol treated plants are indicated by "+" in Table V. The Net Assimulation Rate (NAR), the Relative Growth Rate (RGR) and the Lead Area Ratio (LAR) was determined for each plant at each interval.

IR-8 rice seedlings [2] = assay: Single versus multiple applications on rice seedlings (Example XI); assay type: in vivo
Description: as §1
Water uptake was measured by weighing the cups after removal of the plants and subtracting the tare and the water evaporated. For tests continued for more than one day, the solution used was measured every 3 days and new Hoagland's added and the pH maintained at 5.0 with sulfuric acid.
In this Example, the experiment determined the growth of "IR-8" rice seedlings by comparing a single application of triacontanol with multiple applications of triacontanol. Triacontanol was applied at the beginning of each indicated period.

Mich. 396 Field Corn = assay: Single and multiple applications on field corn at two fertility levels (Example XIV); assay type: in vivo
Description: Tests were run to study the effect of single and multiple applications of triacontanol on the growth of "Mich. 396 Field Corn" grown at two Fertility Levels in a greenhouse soil. Plants were treated at 14 days after planting and were harvested 37 days after planting. The following results were obtained (Table XIV).

[3] = system: Potato callus cell culture; assay: Growth of potato callus cell culture (Example XIX); assay type: cell-based, Solanum tuberosum, var. adveria
Description: (§2) Cell cultures were separately grown in disposable petri dishes.
3. Potato (Solanum tuberosum, var. adveria)
(§3) The cultures were grown on the basic medium of mineral salts described by Linsmaier and Skoog (Physiol. Plant, […] (1965)). Vitamins and hormones varied for each tissue (Table X-1) to maintain the tissues in an undifferentiated state. For all of the tissues inositol was 100 mg/liter and agar 1%. Sucrose was 3% for all but the bean which was 2%.
(§4) Callus was produced from pith for tobacco, potato and tomato. Bean callus was produced from hypocotyl sections and barley callus from immature ovarian tissue. Subcultures were maintained on the appropriate media.
(§5) Stock solutions of triacontanol were prepared at a concentration of 100 μg/ml. The solvent used was glass distilled benzene. The lower concentrations were obtained by serial dilutions. Treatments were applied to 4.5 cm Whatman #1 filter paper disks in 100 μl aliquots. Controls received 100 μl of glass distilled benzene. The solvent was evaporated for approximately 15 minutes and the filter papers were then placed on the agar medium.
(§6) Callus tissue was then broken into pieces of approximately the same size (10 mg) and placed in the petri dishes on the treated filter paper (one piece per dish). For experiments conducted in the light the intensity was approximately 2.0 microwatts/cm^2 -namometer. Fresh weight measurements were made after 12 days of growth.

tobacco callus = assay: Growth of tobacco callus, triacontanol and octocosanol (Example XIX, FIG. 6); assay type: cell-based, Nicotiana tabacum, var. Wisconsin 38; conditions: 10 days; for growth over the control: four concentrations
Description: as §2
1. Haploid tobacco (Nicotiana tabacum, var. Wisconsin 38)
as §3, §4, §5, §6
A stock solution of octocosanol (CH3 (CH2)26 CH2 OH was prepared in the same manner as the triacontanol solutions above described.
The effect of four concentrations of triacontanol and octocosanol on tobacco callus was determined, using the materials and procedures above described in this Example. The dishes were tared and weighed at the end of 10 days. The results are illustrated in FIG. 6 of the drawings.

[4] = printed 10.0 g triacontanol, 12 days

CCCCCCCCCCCCCCCCCCCCCCCCCCCCCCO [Triacontanol, 1-triacontanol]
LAR (Leaf Area Ratio) (IR-8 rice seedlings [1]; 0-8 hours): 0.16
NAR (Net Assimulation Rate) (IR-8 rice seedlings [1]; 0-8 hours): 3.39 mg plant wt per cm^2 per day
RGR (Relative Growth Rate) (IR-8 rice seedlings [1]; 0-8 hours): 0.52 mg dry weight per mg original
LAR (Leaf Area Ratio) (IR-8 rice seedlings [1]; 9-24 hours): 0.15
NAR (Net Assimulation Rate) (IR-8 rice seedlings [1]; 9-24 hours): 0.90 mg plant wt per cm^2 per day
RGR (Relative Growth Rate) (IR-8 rice seedlings [1]; 9-24 hours): 0.14 mg dry weight per mg original
LAR (Leaf Area Ratio) (IR-8 rice seedlings [1]; 25-72 hours): 0.16
NAR (Net Assimulation Rate) (IR-8 rice seedlings [1]; 25-72 hours): 1.03 mg plant wt per cm^2 per day
RGR (Relative Growth Rate) (IR-8 rice seedlings [1]; 25-72 hours): 0.17 mg dry weight per mg original
LAR (Leaf Area Ratio) (IR-8 rice seedlings [1]; 73-216 hours): 0.13
NAR (Net Assimulation Rate) (IR-8 rice seedlings [1]; 73-216 hours): 1.15 mg plant wt per cm^2 per day
RGR (Relative Growth Rate) (IR-8 rice seedlings [1]; 73-216 hours): 0.15 mg dry weight per mg original
net assimilation (NAR) greater than control plants (IR-8 rice seedlings [1]; first 8 hour and subsequent 16 hour period): 37%
Dry wt (IR-8 rice seedlings [2]; multiple applications): 286 mg/seedling
Water uptake per day (IR-8 rice seedlings [2]; multiple applications, time period 0-2): 14.2 mL
Water uptake per day (IR-8 rice seedlings [2]; multiple applications, time period 3-5): 22.6 mL
Water uptake per day (IR-8 rice seedlings [2]; multiple applications, time period 6-7): 33.5 mL
Water uptake per day (IR-8 rice seedlings [2]; multiple applications, time period 8-9): 40.2 mL
Water uptake per day (IR-8 rice seedlings [2]; multiple applications, time period 10-12, two cups dry at harvest): 57.0 mL
Dry wt (IR-8 rice seedlings [2]; single application): 273 mg/seedling
Water uptake per day (IR-8 rice seedlings [2]; single application, time period 0-2): 13.9 mL
Water uptake per day (IR-8 rice seedlings [2]; single application, time period 3-5): 21.0 mL
Water uptake per day (IR-8 rice seedlings [2]; single application, time period 6-7): 30.0 mL
Water uptake per day (IR-8 rice seedlings [2]; single application, time period 8-9): 35.8 mL
Water uptake per day (IR-8 rice seedlings [2]; single application, time period 10-12, two cups dry at harvest): 56.6 mL
Dry Weight (Mich. 396 Field Corn; high fertility, 1 application): 2.032 g/plant
Dry Weight (Mich. 396 Field Corn; high fertility, 5 applications): 1.913 g/plant
Dry Weight (Mich. 396 Field Corn; low fertility, 1 application): 1.297 g/plant
Dry Weight (Mich. 396 Field Corn; low fertility, 5 applications): 1.696 g/plant
growth of in vitro cell cultures ([3]; potato): significant increases in growth
% of control [3, 4]: 121 % of control
Fresh weight [3, 4]: 23.5
optimum concentration for growth (tobacco callus): 0.1 μg per dish
growth over the control (tobacco callus; listed as 1-triacontanol): significant increases in growth
growth over the control (tobacco callus; listed as triacontanol): significant increases in growth over the control
